Test results published in patent publication US20040235761A1, “Novel virus proliferaton inhibition/virucidal method and novel pyradine nucleotide/pyradine nucleoside analogue” (priority 2001, published 2004).

Assays:
MDCK cells [1] = assay: Detection of phosphate compound in cell (Test Example 1); format: in vitro ADME; details: 35° C., 20 hours, HPLC with radioactivity detector
Protocol: 5 ml of an E′-MEM culture medium (containing 1% bovine serum albumin and 3% vitamin solution) containing a compound, 6-fluoro-3-hydroxy-2-[2-^14C]pyrazinecarboxamide, which ha-d been ^14C-labeled at position 2 of the pyrazine ring, was added to MDCK cells that had been monolayer-cultured on a 55 cm^2 culture plate. After completion of culture under conditions of 35° C. and 5% CO2 for 20 hours, 6-fluoro-3-hydroxy-2-[2-^14C]pyrazinecarboxamide and a converted compound were extracted from cell fractions, using a 66.6% acetonitrile solution. The extract was lyophilized and concentrated, and then analysis was carried out under the HPLC analysis conditions indicated below.

MDCK cells [2] = assay: Detection of deprotected compound in cell (Test Example 2); format: in vitro ADME; details: 37° C., 1 hour, HPLC
Protocol: The compound of Example 2 was added to MDCK cells suspended in a Hank's balanced salt solution, and the mixture was incubated at 37° C. for 1 hour. Thereafter, the obtained product was layered on silicon oil (KF-99), followed by centrifugation at 4° C. Cell fractions from the precipitate were suspended and frozen-thawed in a mobile phase indicated below, and the obtained solution was analyzed under the HPLC analysis conditions indicated below.

[3] = test system: bovine diarrhea virus (BVDV) NADL; assay: Anti-BVDV effect (plaque inhibition in MDBK cells); format: cell-based; details: Bovine viral diarrhea virus isolates and strains, 72 h, 100 μg/mL test compound, 70 PFU/well, 3 days, read-out: Inhibition rate (plaque inhibition rate)
Protocol: MDBK cells that had fully grown in a 6-well culture plate were infected with bovine diarrhea virus (BVDV) NADL at 70 PFU/well. After 60 minutes, the infection solution was removed, and a test culture solution (E′-MEM) containing 5% horse serum and 1% agar (SeaPlaque Agar) that contained a 100 μg/mL test compound was added thereto. The mixture was fully solidified and then cultured for 3 days under conditions of 37° C., a humidity of 100% and 5% CO2. After completion of the culture, the test plate was fixed with a 3% formaldehyde solution, and the agar medium was removed with running water, followed by staining with a 1% crystal violet solution, so as to count the number of plaques. The plaque inhibition rate was expressed by the percentage obtained by comparing with a control to which no test compounds were added.

[4] = test system: influenza virus A/PR/8/34; assay: Anti-influenza effect (plaque inhibition in MDCK cells); format: cell-based; details: PR/8, MDCK, 72 h, read-out: Inhibition rate (plaque inhibition rate)
[5] = Stability during the process of pharmaceutical preparation; format: physicochemical; details: compared with anhydrides
MDBK cells = assay: Detection of triphosphate compound in cell by addition of compound A; format: in vitro ADME; details: 37° C., 24 hours
Protocol: 10 ml of an E′-MEM culture medium (containing 0.5% fetal bovine serum) containing compound A was added to MDBK cells that had been monolayer-cultured on a 55 cm^2 culture plate. After completion of culture under conditions of 37° C. and 5% CO2 for 24 hours, the culture was removed using a cell scraper, and the culture medium was removed by centrifugation. Thereafter, 5% trichloroacetic acid was added to the obtained cell fractions, so that a converted compound was extracted. An equal amount of 20% trioctylamine-containing pentane was added to the extract, and the obtained water layer was then concentrated using a centrifugal concentrator. In the above concentrate, a component whose HPLC retention time matches that of a synthetic compound of triphosphates (a compound obtained in Reference Example 22) was detected.

[6] = mouse, in vivo, 300 mg/kg
Protocol: Compound A was administered into the caudal vein of a mouse at a dose of 300 mg/kg. 30 minutes after the administration, 1.6 g of the liver was excised, and it was then ground under ice cooling, while adding thereto 22.5 mL of 70% methanol that had been cooled to −20° C., so that compound A and a phosphate(s) form were extracted. 10 mL of the supernatant of the extract centrifuged at 4° C. for 10 minutes was purified under the condition indicated below, using a solid extraction cartridge (Varian BOND ELUT SAX HF 2 g/12 mL; eluted with 0.01 M to 1.0 M KCl) pretreated with 12 mL of methanol and 12 mL each of 1.0 M and 0.005 M KCl.
The phosphate form contained in 5 mL of No. 3 0.05 M KCl eluate and a synthetic monophosphate compound (a compound obtained in Reference Example 30) were identical in terms of HPLC retention time and UV spectrum in HPLC analysis (HPLC-1) described in HPLC conditions. In addition, the phosphate form contained in 5 mL of No. 1 0.5 M KCl eluate and a synthetic diphosphate compound (a compound obtained in Reference Example 31) were identical in terms of HPLC retention time in HPLC analysis (HPLC-2) described in HPLC conditions. […]

NC(=O)[14c]1nc(F)cnc1O [6-fluoro-3-hydroxy-2-[2-^14C] pyrazinecarboxamide]
monophosphate (Reference Example 15) and triphosphate (Reference Example 16) in cell fractions (MDCK cells [1]): detected

CC(C)(C)C(=O)SCCOP(=O)(OCCSC(=O)C(C)(C)C)OC[C@H]1O[C@@H](n2ccnc(C(N)=O)c2=O)[C@H](O)[C@@H]1O [Example 2, 2,2-dimethyl-thiopropionic acid S-(2-[[(2R,3S,4R,5R)-5-(3-carbamoyl-2-oxo-2H-pyrazine-1-yl)-3,4-dihydroxy-tetrahydro-furan-2-ylmethoxy]-[2-(2,2-dimethyl-propionylsulfanyl)-ethoxy]-phosphoryloxy]-ethyl) ester]
monophosphate as deprotected compound in cell fractions (MDCK cells [2]): detected | inhibition at 100 µg/mL [3]: 100% | inhibition at 100 µg/mL [4]: 100%

NC(=O)c1nccn([C@@H]2O[C@H](CO)[C@@H](O)[C@H]2O)c1=O.O [Example 29 (2), 4-[(2R,3R,4S,5R)-3,4-dihydroxy-5-(hydroxymethyl)tetrahydro-2-furanyl]-3-oxo-3,4-dihydro-2-pyrazinecarboxamide monohydrate]
stability during the process of pharmaceutical preparation [5]: excellent stability

NC(=O)c1nccn([C@@H]2O[C@H](CO)[C@@H](O)[C@H]2O)c1=O [Example 29, 4-[(2R,3R,4S,5R)-3,4-dihydroxy-5-(hydroxymethyl)tetrahydro-2-furanyl]-3-oxo-3,4-dihydro-2-pyrazinecarboxamide]
component whose HPLC retention time matches the synthetic triphosphate (Reference Example 22) in cell extract (MDBK cells): detected | conversion into phosphate forms in the liver [6]: converted in vivo into a monophosphate, then into a diphosphate form, and then into a triphosphate | inhibition at 100 µg/mL [3]: 100% | inhibition at 100 µg/mL [4]: 100%
